In US20250082674A1, “METHODS OF TREATING COPPER METABOLISM-ASSOCIATED DISEASES OR DISORDERS” (priority 2021, published 2025):
Like-named read-outs stand apart in the source and are kept apart here.

Tested on: patients with Wilson disease (WD)
Conditions: for Transformed CGI-I Mean (SD): scores −3 (Very much improved) to 3 (Very much worse)
Text: Dose modification, if required, was made as described herein.

Bis-choline tetrathiomolybdate [BC-TTM]
CGI-S (1 to 7, 1 is normal) Mean (Baseline): 2.7
UWDRS Part II (0-40) Mean (Baseline): 3.4
UWDRS Part III (0-175) Mean (Baseline): 13.99
UWDRS Part III functional subscale (0-10) Mean (Baseline): 1.390
UWDRS Part III-arising from chair (0-4) Mean (Baseline): 0.3
UWDRS Part III-gait (0-4) Mean (Baseline): 1.40
UWDRS Part III-handwriting (0-4) Mean (Baseline): 0.6
UWDRS Part III-speech (0-4) Mean (Baseline): 0.8
key secondary endpoints (UWDRS, CGI) versus baseline (Study 301 extension period, interim): statistically significant improvements from baseline
CGI-S (1 to 7, 1 is normal) LSM (SE) change from baseline (Week 24): −0.3 (0.07)
CGI-S (1 to 7, 1 is normal) Mean (SD) change from baseline (Week 24): −0.2 (0.79)
UWDRS Part II (0-40) LSM (SE) change from baseline (Week 24): −0.4 (0.20)
UWDRS Part II (0-40) Mean (SD) change from baseline (Week 24): −0.3 (1.99)
UWDRS Part III (0-175) LSM (SE) change from baseline (Week 24): −1.32 (0.619)
UWDRS Part III (0-175) Mean (SD) change from baseline (Week 24): −0.74 (5.937)
UWDRS Part III functional subscale (0-10) LSM (SE) change from baseline (Week 24): −0.158 (0.0547)
UWDRS Part III functional subscale (0-10) Mean (SD) change from baseline (Week 24): −0.139 (0.4540)
UWDRS Part III-arising from chair (0-4) LSM (SE) change from baseline (Week 24): −0.1 (0.03)
UWDRS Part III-arising from chair (0-4) Mean (SD) change from baseline (Week 24): 0.0 (0.38)
UWDRS Part III-gait (0-4) LSM (SE) change from baseline (Week 24): −0.21 (0.100)
UWDRS Part III-gait (0-4) Mean (SD) change from baseline (Week 24): −0.17 (1.113)
UWDRS Part III-handwriting (0-4) LSM (SE) change from baseline (Week 24): 0.0 (0.04)
UWDRS Part III-handwriting (0-4) Mean (SD) change from baseline (Week 24): −0.1 (0.38)
UWDRS Part III-speech (0-4) LSM (SE) change from baseline (Week 24): −0.1 (0.04)
UWDRS Part III-speech (0-4) Mean (SD) change from baseline (Week 24): −0.1 (0.38)
Transformed CGI-I Mean (SD) (Week 24): −0.5 (0.82)
CGI-S (1 to 7, 1 is normal) LSM (SE) change from baseline (Week 48): −0.4 (0.07)
CGI-S (1 to 7, 1 is normal) Mean (SD) change from baseline (Week 48): −0.5 (0.94)
UWDRS Part II (0-40) LSM (SE) change from baseline (Week 48): −0.7 (0.21)
UWDRS Part II (0-40) Mean (SD) change from baseline (Week 48): −0.7 (2.70)
UWDRS Part III (0-175) LSM (SE) change from baseline (Week 48): −2.47 (0.638)
UWDRS Part III (0-175) Mean (SD) change from baseline (Week 48): −2.32 (7.735)
UWDRS Part III functional subscale (0-10) LSM (SE) change from baseline (Week 48): −0.230 (0.0569)
UWDRS Part III functional subscale (0-10) Mean (SD) change from baseline (Week 48): −0.235 (0.6976)
UWDRS Part III-arising from chair (0-4) LSM (SE) change from baseline (Week 48): 0.0 (0.04)
UWDRS Part III-arising from chair (0-4) Mean (SD) change from baseline (Week 48): 0.0 (0.40)
UWDRS Part III-gait (0-4) LSM (SE) change from baseline (Week 48): −0.26 (0.104)
UWDRS Part III-gait (0-4) Mean (SD) change from baseline (Week 48): −0.18 (1.262)
UWDRS Part III-handwriting (0-4) LSM (SE) change from baseline (Week 48): −0.1 (0.04)
UWDRS Part III-handwriting (0-4) Mean (SD) change from baseline (Week 48): −0.2 (0.59)
UWDRS Part III-speech (0-4) LSM (SE) change from baseline (Week 48): −0.1 (0.04)
UWDRS Part III-speech (0-4) Mean (SD) change from baseline (Week 48): −0.1 (0.53)
Transformed CGI-I Mean (SD) (Week 48): −0.7 (0.91)
CGI-S (1 to 7, 1 is normal) LSM (SE) change from baseline (Week 72): −0.5 (0.07)
CGI-S (1 to 7, 1 is normal) Mean (SD) change from baseline (Week 72): −0.6 (1.10)
UWDRS Part II (0-40) LSM (SE) change from baseline (Week 72): −1.0 (0.22)
UWDRS Part II (0-40) Mean (SD) change from baseline (Week 72): −1.2 (2.92)
UWDRS Part III (0-175) LSM (SE) change from baseline (Week 72): −3.47 (0.672)
UWDRS Part III (0-175) Mean (SD) change from baseline (Week 72): −3.27 (9.840)
UWDRS Part III functional subscale (0-10) LSM (SE) change from baseline (Week 72): −0.253 (0.0604)
UWDRS Part III functional subscale (0-10) Mean (SD) change from baseline (Week 72): −0.290 (0.8908)
UWDRS Part III-arising from chair (0-4) LSM (SE) change from baseline (Week 72): −0.1 (0.04)
UWDRS Part III-arising from chair (0-4) Mean (SD) change from baseline (Week 72): −0.1 (0.57)
UWDRS Part III-gait (0-4) LSM (SE) change from baseline (Week 72): −0.15 (0.110)
UWDRS Part III-gait (0-4) Mean (SD) change from baseline (Week 72): −0.12 (1.321)
UWDRS Part III-handwriting (0-4) LSM (SE) change from baseline (Week 72): −0.2 (0.05)
UWDRS Part III-handwriting (0-4) Mean (SD) change from baseline (Week 72): −0.2 (0.59)
UWDRS Part III-speech (0-4) LSM (SE) change from baseline (Week 72): −0.1 (0.04)
UWDRS Part III-speech (0-4) Mean (SD) change from baseline (Week 72): −0.1 (0.51)
Transformed CGI-I Mean (SD) (Week 72): −0.5 (0.86)
CGI-S (1 to 7, 1 is normal) LSM (SE) change from baseline (Week 96): −0.5 (0.09)
CGI-S (1 to 7, 1 is normal) Mean (SD) change from baseline (Week 96): −0.6 (0.97)
UWDRS Part II (0-40) LSM (SE) change from baseline (Week 96): −1.1 (0.30)
UWDRS Part II (0-40) Mean (SD) change from baseline (Week 96): −1.1 (3.61)
UWDRS Part III (0-175) LSM (SE) change from baseline (Week 96): −4.77 (0.865)
UWDRS Part III (0-175) Mean (SD) change from baseline (Week 96): −4.09 (10.827)
UWDRS Part III functional subscale (0-10) LSM (SE) change from baseline (Week 96): −0.386 (0.0801)
UWDRS Part III functional subscale (0-10) Mean (SD) change from baseline (Week 96): −0.503 (0.9648)
UWDRS Part III-arising from chair (0-4) LSM (SE) change from baseline (Week 96): −0.1 (0.05)
UWDRS Part III-arising from chair (0-4) Mean (SD) change from baseline (Week 96): −0.2 (0.76)
UWDRS Part III-gait (0-4) LSM (SE) change from baseline (Week 96): −0.12 (0.143)
UWDRS Part III-gait (0-4) Mean (SD) change from baseline (Week 96): −0.11 (1.390)
UWDRS Part III-handwriting (0-4) LSM (SE) change from baseline (Week 96): −0.3 (0.06)
UWDRS Part III-handwriting (0-4) Mean (SD) change from baseline (Week 96): −0.4 (0.66)
UWDRS Part III-speech (0-4) LSM (SE) change from baseline (Week 96): −0.2 (0.05)
UWDRS Part III-speech (0-4) Mean (SD) change from baseline (Week 96): −0.2 (0.57)
Transformed CGI-I Mean (SD) (Week 96): −0.5 (0.98)
CGI-S (1 to 7, 1 is normal) LSM (SE) change from baseline (Week 120): −0.7 (0.11)
CGI-S (1 to 7, 1 is normal) Mean (SD) change from baseline (Week 120): −0.6 (1.06)
UWDRS Part II (0-40) LSM (SE) change from baseline (Week 120): −1.7 (0.35)
UWDRS Part II (0-40) Mean (SD) change from baseline (Week 120): −1.4 (3.48)
UWDRS Part III (0-175) LSM (SE) change from baseline (Week 120): −5.27 (1.016)
UWDRS Part III (0-175) Mean (SD) change from baseline (Week 120): −4.08 (11.618)
UWDRS Part III functional subscale (0-10) LSM (SE) change from baseline (Week 120): −0.392 (0.0952)
UWDRS Part III functional subscale (0-10) Mean (SD) change from baseline (Week 120): −0.410 (1.1867)
UWDRS Part III-arising from chair (0-4) LSM (SE) change from baseline (Week 120): −0.1 (0.06)
UWDRS Part III-arising from chair (0-4) Mean (SD) change from baseline (Week 120): −0.2 (0.83)
UWDRS Part III-gait (0-4) LSM (SE) change from baseline (Week 120): 0.04 (0.172)
UWDRS Part III-gait (0-4) Mean (SD) change from baseline (Week 120): 0.26 (1.683)
UWDRS Part III-handwriting (0-4) LSM (SE) change from baseline (Week 120): −0.3 (0.07)
UWDRS Part III-handwriting (0-4) Mean (SD) change from baseline (Week 120): −0.5 (0.68)
UWDRS Part III-speech (0-4) LSM (SE) change from baseline (Week 120): −0.2 (0.06)
UWDRS Part III-speech (0-4) Mean (SD) change from baseline (Week 120): −0.1 (0.61)
Transformed CGI-I Mean (SD) (Week 120): −0.7 (0.92)
CGI-S (1 to 7, 1 is normal) LSM (SE) change from baseline (Week 144): −0.6 (0.12)
CGI-S (1 to 7, 1 is normal) Mean (SD) change from baseline (Week 144): −0.6 (0.78)
UWDRS Part II (0-40) LSM (SE) change from baseline (Week 144): −2.0 (0.39)
UWDRS Part II (0-40) Mean (SD) change from baseline (Week 144): −2.0 (4.68)
UWDRS Part III (0-175) LSM (SE) change from baseline (Week 144): −6.38 (1.112)
UWDRS Part III (0-175) Mean (SD) change from baseline (Week 144): −5.99 (12.215)
UWDRS Part III functional subscale (0-10) LSM (SE) change from baseline (Week 144): −0.489 (0.1046)
UWDRS Part III functional subscale (0-10) Mean (SD) change from baseline (Week 144): −0.573 (1.2617)
UWDRS Part III-arising from chair (0-4) LSM (SE) change from baseline (Week 144): −0.2 (0.07)
UWDRS Part III-arising from chair (0-4) Mean (SD) change from baseline (Week 144): −0.3 (1.03)
UWDRS Part III-gait (0-4) LSM (SE) change from baseline (Week 144): −0.25 (0.186)
UWDRS Part III-gait (0-4) Mean (SD) change from baseline (Week 144): 0.00 (1.950)
UWDRS Part III-handwriting (0-4) LSM (SE) change from baseline (Week 144): −0.3 (0.08)
UWDRS Part III-handwriting (0-4) Mean (SD) change from baseline (Week 144): −0.5 (0.59)
UWDRS Part III-speech (0-4) LSM (SE) change from baseline (Week 144): −0.3 (0.07)
UWDRS Part III-speech (0-4) Mean (SD) change from baseline (Week 144): −0.2 (0.59)
Transformed CGI-I Mean (SD) (Week 144): −0.7 (0.76)
